According to patent US6060043A, “Deodorant composition containing D-amino acid” (The Gillette Company, priority 1998, dated 2000):
Values after ≈ are worked out from the molar mass of the structure shown. Values belong to the compound of their own block, whether it stands above or below them.

What was measured:
[1] = Test of antimicrobial materials for deodorant activity; settings: compared with currently available materials
Excerpt: Cosmetic Chemists, 19, 611-626 (1968) and Cowen, "Relative Merits of `In Use` and Laboratory Methods for the Evaluation of Antimicrobial Products, "J. Soc. Cosmetic Chemists, 25, 307-323 (1974).

[2] = test system: β-lyase; assay: Sniff vial test: malodor formation from precursors by whole Staphylococcus haemolyticus cells (beta-lyase inhibition); format: cell-based; settings: whole Staphylococcus haemolyticus cells, sniff vial assay
Procedure: BCA was tested for its ability to prevent Staphylococcus haemolyticus from metabolizing sweat to form malodor. Log-phase cultures of Staphylococcus haemolyticus were incubated with various concentrations of BCA (31-0.625 mM) in phosphate buffer (pH 6.8) for 30 minutes at 35° C. The cell/BCA mixture was then added to a "sniff vial" containing malodor precursors and incubated at 35° C. for an additional 30 minutes. Malodor compounds were then extracted from the mixture with chloroform and malodor was judged by spotting 10 μl of chloroform extracts onto bibulous paper and smelling. […] In contrast, the β-lyase inhibitor aminooxyacetic acid (AOA) consistently prevents malodor in the above assay at concentrations of 5.0 mM.

[3] = test system: Coryneform bacteria; assay: Minimum inhibitory concentration (MIC) in axillary bacteria, Coryneform strain; format: cell-based, Coryneform strains of axillary bacteria; settings: Coryneforms; overnight at 35° C.; lowest concentration without turbidity; read-out: MIC
Procedure: (§1) In vitro experiments were conducted in order to determine the ability of several bacterial cell wall synthesis inhibitors to inhibit the growth of axillary bacteria. The minimum inhibitory concentrations (MIC) of β-chloro-D-alanine (BCA), and D-cycloserine were determined in Staphylococcus (Staphylococcus haemolyticus) and Coryneform strains of axillary bacteria as follows: Frozen stock cultures were thawed out and 50 μl of Staphylococcus haemolyticus or 100 μl of Coryneform bacteria were inoculated into 5.0 ml of nutrient media. Bacteria were incubated at 35° C. overnight to produce cultures in log phase growth. A series of tubes was set up into which serial dilutions of BCA or triclosan in nutrient media were added in the range of 0.1 to 0.0001 wt/v % (where 1 g/100 ml=1 wt/v %). The tubes were inoculated with 50 μl of log phase Staphylococcus haemolyticus or Coryneform cultures and incubated at 35° C. overnight. […] The minimum bactericidal concentration (MBC) was determined by adding 50 μl from each clear solution of the MIC experiment into 5.0 ml of fresh nutrient media and incubating overnight at 37° C. […] The MIC of BCA was thus determined to be 0.1 wt/v % and 0.001 wt/v % in Staphylococcus haemolyticus and Coryneforms, respectively. The MIC of D-cycloserine was thus determined to be 0.01 wt/v % and 0.005 wt/v % in Staphylococcus haemolyticus and Coryneforms, respectively. By comparison, the MIC of the common antibacterial deodorant compound triclosan is 0.01 wt/v % and 0.1 wt/v % in Staphylococcus haemolyticus and Coryneforms, respectively.

[4] = test system: Staphylococcus haemolyticus; assay: Minimum inhibitory concentration (MIC) in axillary bacteria, Staphylococcus strain; format: cell-based; settings: overnight at 35° C., lowest concentration without turbidity, read-out: MIC
Procedure: as §1

[5] = test system: axillary malodor; assay: Example 5: axillary malodor evaluation by odor judges, 1.0% D-cycloserine vs 0.3% triclosan; format: in vivo, human; design: key to Post-Application 24 Hour Drop from Control: drop in odor score vs control; scale 0 (no odor) to 10 (very intense); settings: for Post-Application 24 Hour Drop from Control / Judges' Malodor Evaluation (score): 1.0% D-cycloserine, 0.3% triclosan; for Judges' Malodor Evaluation (score): scale 0 to 10
Procedure: (§2) BCA was dissolved in a mixture of 60% propylene glycol and 40% water at a final concentration of 1.0%. The pH of the solution was adjusted to about 6.25 with 10 N NaOH. Thirty-nine female panelists applied 0.5 ml of this test solution to either the right or left axilla and 0.5 ml of a comparative solution of 60% propylene glycol and 40% water to the other. The side of application of the test or comparative solutions was assigned in a random fashion. Twenty-four hours after application, each side of the panelists' axilla was judged for odor by a panel of trained odor judges on a scale of 0 (no odor) to 10 (very intense, disagreeable odor). This procedure was performed on four consecutive days. […] Analysis of the clinical results is summarized below:
A test product containing 1.0% D-cycloserine in 60% propylene glycol/40% water was compared to a product containing 0.3% triclosan in 60% propylene glycol/40% water by application to 60 test subjects according to the procedure of Example 4. […] All differences were highly significant.

[6] = test system: Staphylococcus cells; settings: as disclosed in U.S. Pat. No. 5,487,886; cited from earlier work
[7] = target: T1, serine-palmitoyl transferase (Mus musculus, UniProt P97363); settings: topical application; Holleran et al. 1991; cited from earlier work
T1 construct: host or cells: skin, in vivo after topical application
T1 sequence (P97363 1-560): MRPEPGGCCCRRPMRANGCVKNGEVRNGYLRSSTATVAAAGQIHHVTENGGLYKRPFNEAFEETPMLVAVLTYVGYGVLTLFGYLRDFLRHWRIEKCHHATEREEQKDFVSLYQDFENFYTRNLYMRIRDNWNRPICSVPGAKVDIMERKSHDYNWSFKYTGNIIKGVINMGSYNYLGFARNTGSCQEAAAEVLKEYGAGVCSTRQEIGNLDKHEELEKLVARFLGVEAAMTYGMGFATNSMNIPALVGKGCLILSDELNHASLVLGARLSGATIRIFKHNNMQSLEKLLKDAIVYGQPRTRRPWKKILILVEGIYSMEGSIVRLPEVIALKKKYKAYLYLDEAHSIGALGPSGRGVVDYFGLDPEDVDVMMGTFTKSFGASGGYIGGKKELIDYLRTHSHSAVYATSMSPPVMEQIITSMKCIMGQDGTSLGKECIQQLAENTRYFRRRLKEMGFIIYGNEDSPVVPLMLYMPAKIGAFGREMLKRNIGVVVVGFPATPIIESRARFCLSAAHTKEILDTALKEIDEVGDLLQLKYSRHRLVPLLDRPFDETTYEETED
T1 sequence (O35704 1-473 partner): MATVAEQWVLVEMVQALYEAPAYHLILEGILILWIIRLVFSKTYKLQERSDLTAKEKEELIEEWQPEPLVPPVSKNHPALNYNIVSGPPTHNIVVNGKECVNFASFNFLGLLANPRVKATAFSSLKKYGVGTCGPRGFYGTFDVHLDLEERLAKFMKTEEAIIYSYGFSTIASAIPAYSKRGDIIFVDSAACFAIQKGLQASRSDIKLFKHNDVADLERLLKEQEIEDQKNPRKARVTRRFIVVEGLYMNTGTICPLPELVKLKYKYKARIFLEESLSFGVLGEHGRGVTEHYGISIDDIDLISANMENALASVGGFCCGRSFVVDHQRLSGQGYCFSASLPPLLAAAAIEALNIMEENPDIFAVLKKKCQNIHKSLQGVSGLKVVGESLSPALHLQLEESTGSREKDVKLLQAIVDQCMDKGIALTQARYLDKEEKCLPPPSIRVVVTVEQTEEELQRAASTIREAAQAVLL

[8] = test system: axillary malodor; assay: Example 6: axillary malodor evaluation by odor judges, 1.0% β-chloro-D-alanine vs 1.0% β-chloro-L-alanine; format: in vivo, human; design: key to 24 Hour Drop from Control / A-B (drop), D-BCA minus L-BCA: drop in odor score on 0 (no odor) to 10 (very intense) scale; settings: 1.0% in 60% propylene glycol/40% water
Procedure: as §2
A test product containing 1.0% β-chloro-D-alanine (BCA)[…] in 60% propylene glycol/40% water was compared to a comparative product containing 1.0% β-chloro-L-alanine in 60% propylene glycol/40% water by application to 50 female test subjects according to the procedure of Example 4.

[9] = topical application; Holleran et al. 1991; cited from earlier work

Structure (SMILES): CCCCCCCCCCCCCCCCCC[N+](C)(C)CCC[Si](OC)(OC)OC.[Cl-] [3-(trimethoxysilyl)propyloctadecyldimethyl ammonium chloride]
Deodorant activity [1]: no improvement over currently available materials was observed

Structure (SMILES): NOCC(=O)O [AOA, aminooxyacetic acid, reference compound]
Concentration that consistently prevents malodor [2]: 5.0 mM

MIC [3]: 50 µg/mL (≈ 490 µM)
Structure (SMILES): NC1CONC1=O [D-cycloserine]
MIC [4]: 100 µg/mL (≈ 979 µM)
Inhibition of axillary malodor, 1.0% D-cycloserine product versus 0.3% triclosan ([5]; all measurements and the composite, odor judges): superior to 0.3% triclosan
Post-Application 24 Hour Drop from Control ([5]; composite): 1.13
Judges' Malodor Evaluation (score) ([5]; composite): 3.61
Post-Application 24 Hour Drop from Control ([5]; measurement day 1): 1.1
Judges' Malodor Evaluation (score) ([5]; measurement day 1): 3.64
Post-Application 24 Hour Drop from Control ([5]; measurement day 2): 0.99
Judges' Malodor Evaluation (score) ([5]; measurement day 2): 3.75
Post-Application 24 Hour Drop from Control ([5]; measurement day 3): 1.22
Judges' Malodor Evaluation (score) ([5]; measurement day 3): 3.53
Post-Application 24 Hour Drop from Control ([5]; measurement day 4): 1.22
Judges' Malodor Evaluation (score) ([5]; measurement day 4): 3.52

Structure (SMILES): NC1CONC1=O [L-cycloserine]
Effect on the growth of Staphylococcus cells in culture [6]: no inhibitory effect

Structure (SMILES): [H]/N=C(\N/C(=N/[H])NCCCCCCNC(=N)NC(=N)Nc1ccc(Cl)cc1)Nc1ccc(Cl)cc1 [chlorhexidine]
Deodorant activity [1]: no improvement over currently available materials was observed

Structure (SMILES): OO [hydrogen peroxide]
Deodorant activity [1]: no improvement over currently available materials was observed

Structure (SMILES): CC(=O)OCC(COC(C)=O)OC(C)=O [triacetin]
Deodorant activity [1]: no improvement over currently available materials was observed

Structure (SMILES): Oc1cc(Cl)ccc1Oc1ccc(Cl)cc1Cl [triclosan, reference compound]
MIC [3]: 1000 µg/mL (≈ 3450 µM)
MIC [4]: 100 µg/mL (≈ 345 µM)
Post-Application 24 Hour Drop from Control ([5]; composite): 0.65
Judges' Malodor Evaluation (score) ([5]; composite): 4.07
Post-Application 24 Hour Drop from Control ([5]; measurement day 1): 0.67
Judges' Malodor Evaluation (score) ([5]; measurement day 1): 4
Post-Application 24 Hour Drop from Control ([5]; measurement day 2): 0.46
Judges' Malodor Evaluation (score) ([5]; measurement day 2): 4.26
Post-Application 24 Hour Drop from Control ([5]; measurement day 3): 0.74
Judges' Malodor Evaluation (score) ([5]; measurement day 3): 3.97
Post-Application 24 Hour Drop from Control ([5]; measurement day 4): 0.72
Judges' Malodor Evaluation (score) ([5]; measurement day 4): 4

Structure (SMILES): N[C@@H](CCl)C(=O)O [β-chloro-L-alanine, reference compound]
Inhibition of serine-palmitoyl transferase in the skin [7]: irreversibly inhibits
24 Hour Drop from Control ([8]; composite): 1.083
24 Hour Drop from Control ([8]; post-application measurement 1): 0.913
24 Hour Drop from Control ([8]; post-application measurement 2): 1.040
24 Hour Drop from Control ([8]; post-application measurement 3): 1.013
24 Hour Drop from Control ([8]; post-application measurement 4): 1.333
Recovery of skin barrier function in vivo [9]: alters recovery of skin barrier function
